Experimental data taken from US20230364079A1, “COMPOUND AS BRAIN-PERMEABLE BTK OR HER2 INHIBITOR, PREPARATION METHOD THEREFOR, AND USE THEREOF” (CHENGDU HYPERWAY PHARMACEUTICALS CO., LTD., priority 2020, published 2023).

Columns and labels:
[1] = target: BTK wild-type kinase (Homo sapiens (Human), UniProt Q06187); experiment: BTK kinase activity inhibition test in vitro (Caliper EZ Reader); assay type: biochemical
Description: In the tests on the activity of inhibiting BTK and HER2 kinase in vitro in the examples of the present disclosure, powder of the compound was dissolved in 100% DMSO to prepare a 10 mM stock solution and stored at-20° C. in the dark. […] In addition, the compounds were subjected to experiments such as liver microsome metabolic stability, rat PK, rat brain penetration rate, and drug efficacy model in the examples of the present disclosure.
Compound powders were dissolved in 100% DMSO to make 10 mM stock solutions, which were stored at -20° C. in the dark.
2: Kinase Reaction Process
(1) Preparation of 1 × Kinase buffer.
(5) After centrifugation at 1000 rpm for 30 seconds, the reaction plate was shaken to mix well and incubated at room temperature for 10 min.
(6) A 5/3-fold final concentration of a mixed solution of ATP and Kinase substrate 2 was prepared with 1 × Kinase buffer.
(7) 15 µL of the mixed solution of ATP and substrate with 5/3-fold final concentration was added to start the reaction.
(8) The 384-well plate was centrifuged at 1000 rpm for 30 seconds, shaken to mix well, and incubated at room temperature for 10 min.
(9) 30 µL of a stop solution was added to stop the kinase reaction, and after centrifugation at 1000 rpm for 30 seconds, the plate was shaken to mix well;
(10) The conversion rate was read with Caliper EZ Reader.
where Conversion%_sample indicates the conversion rate reading of the sample; Conversion%_min is the average reading of the negative control wells, representing the conversion rate reading of the wells without enzyme activity; Conversion%_max is the average reading of the ratio of the positive control wells, representing the conversion rate reading of the wells without compound inhibition.
Dose-Response Curve Fitting
With the log value of the concentration as the X-axis, and the percentage inhibition rate as the Y-axis, the dose-effect curve was fitted using the log(inhibitor) vs. response-Variable slope of the analysis software GraphPad Prism 5, so as to determine the IC50 value of each compound on the enzyme activity.
The calculation formula was: […]

[2] = Pharmacokinetic test, oral, SD rats; assay type: in vivo; settings: oral 10 mg/kg, plasma; for AUC(0-inf) / Cmax / half-life: rat; for Cmax: read-out: Cmax; for half-life: read-out: T½ (converted)
Description: Each test compound was administered orally (10 mg/kg, 3 rats in each group) to SD rats for pharmacokinetic study. […] Animals were fasted overnight before oral administration, and fed again after 4 h of administration. […] At each collection time point, 3 whole blood samples were collected at a the collection volume of about 0.2-0.3 mL. […] The collected plasma was stored at -20° C. before analysis. 20 µL of plasma sample was added into a 1.6 mL 96-well deep-well plate, added with 200 µL of working internal standard solution (the same volume of vehicle was added to the blank instead of internal standard), vortexed for 1 min, and centrifuged at 5800 rpm for 10 min. 100 µL of the supernatant was added to a 96-well injection plate for LC-MS/MS analysis.

Chain of BTK wild-type kinase (Q06187 whole entry): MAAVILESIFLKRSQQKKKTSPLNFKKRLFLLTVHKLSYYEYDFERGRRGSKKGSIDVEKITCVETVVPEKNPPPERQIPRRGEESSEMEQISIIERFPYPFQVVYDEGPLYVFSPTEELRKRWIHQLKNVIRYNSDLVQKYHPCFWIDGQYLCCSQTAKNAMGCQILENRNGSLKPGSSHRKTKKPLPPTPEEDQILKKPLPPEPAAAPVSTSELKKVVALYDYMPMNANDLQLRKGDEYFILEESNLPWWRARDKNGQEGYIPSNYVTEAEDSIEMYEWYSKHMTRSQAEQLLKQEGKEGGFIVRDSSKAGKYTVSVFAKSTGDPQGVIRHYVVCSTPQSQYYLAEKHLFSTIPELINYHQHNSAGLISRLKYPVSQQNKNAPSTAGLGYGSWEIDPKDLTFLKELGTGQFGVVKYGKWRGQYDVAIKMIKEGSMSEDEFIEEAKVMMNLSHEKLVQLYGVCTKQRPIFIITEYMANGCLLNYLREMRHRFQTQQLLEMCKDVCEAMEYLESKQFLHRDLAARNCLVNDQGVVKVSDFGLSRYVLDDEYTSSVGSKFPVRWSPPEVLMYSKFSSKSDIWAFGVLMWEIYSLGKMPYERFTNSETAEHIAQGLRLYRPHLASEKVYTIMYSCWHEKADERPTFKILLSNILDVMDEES

SMILES	IC50 [1] [nM]	further results
COc1ccccc1C(=O)NCc1ccc(-c2nn(C3CCC(CO)OC3)c3ncnc(N)c23)cc1 (single isomer, unassigned) [Compound 60-B]	20 to 100	Cl [2]: 188.82 mL/min/kg; AUC(0-inf) [2]: 889 ng·h/mL; Cmax [2]: 946 ng/mL; half-life [2]: 2.89 h
Nc1nccn2c(C3CCC(CO)OC3)nc(-c3ccc(C(=O)Nc4nccc(C(F)(F)F)c4F)cc3)c12 (stereo not drawn) [Compound 86]	100 to 1000	
Nc1nccn2c(C3CCC(CO)OC3)nc(-c3ccc(C(=O)Nc4ncccc4F)cc3)c12 (stereo not drawn) [Compound 87]	100 to 1000	
COc1ccccc1Oc1ccc(-c2nc(C3CCC(CO)OC3)n3ccnc(N)c23)cc1 (stereo not drawn) [Compound 88]	20 to 100	
Nc1nccn2c(C34CCC(CO)(CC3)OC4)nc(-c3ccc(Oc4cccc(C(F)(F)F)c4F)cc3)c12 [Compound 93]	5 to 20	
Nc1nccn2c(C34CCC(CO)(CC3)OC4)nc(-c3ccc(Oc4cccc(Cl)c4F)cc3)c12 [Compound 94]	5 to 20	
Nc1nccn2c(C34CCC(CO)(CC3)OC4)nc(-c3ccc(Oc4cccc(OC(F)(F)F)c4F)cc3)c12 [Compound 95]	5 to 20	
COc1cccc(Oc2ccc(-c3nc(C4CCC(CO)OC4)n4ccnc(N)c34)c(F)c2)c1C#N (stereo not drawn) [Compound 98]	< 5	
COc1cccc(Oc2ccc(-c3nc(C4CCC(CO)OC4)n4c(Cl)cnc(N)c34)cc2)c1C#N (stereo not drawn) [Compound 100]	< 5	
COc1cccc(Oc2ccc(-c3nc(C4CCC(CO)OC4)n4ccnc(N)c34)cc2)n1 (stereo not drawn) [Compound 104]	5 to 20	
Nc1ncc(Cl)n2c(C3CCC(CO)OC3)nc(-c3ccc(C(=O)Nc4cc(C(F)(F)F)ccn4)cc3)c12 (stereo not drawn) [Compound 110]	< 5	
Nc1nccn2c(C3CCC(CO)OC3)nc(-c3ccc(C(F)(F)c4ccccc4)cc3F)c12 (stereo not drawn) [Compound 113]	5 to 20	
COc1cccc(Oc2ccc(-c3nc(C45CCC(CO)(CC4)OC5)n4ccnc(N)c34)cc2)c1C#N [Compound 116]	< 5	Cl [2]: 84.73 mL/min/kg; AUC(0-inf) [2]: 2010 ng·h/mL; Cmax [2]: 858 ng/mL; half-life [2]: 1.35 h
COc1cccc(Oc2ccc(-c3nc(C4CCC(CO)OC4)n4ccnc(N)c34)cc2)c1C(F)(F)F (stereo not drawn) [Compound 119]	< 5	Cl [2]: 75.92 mL/min/kg; AUC(0-inf) [2]: 2250 ng·h/mL; Cmax [2]: 663 ng/mL; half-life [2]: 0.64 h
COc1cccc(C(F)(F)c2ccc(-c3nc(C4CCC(CO)OC4)n4ccnc(N)c34)cc2)c1F (stereo not drawn) [Compound 126]	5 to 20	
Nc1ncc(Cl)n2c(C34CCC(CO)(CC3)OC4)nc(-c3ccc(C(=O)Nc4cc(C(F)(F)F)ccn4)cc3)c12 [Compound 128]	< 5	
COc1cccc(C(F)(F)c2ccc(-c3nc(C45CCC(CO)(CC4)OC5)n4ccnc(N)c34)cc2)c1 [Compound 132]	20 to 100	
Nc1nccn2c(C34CCC(CO)(CC3)OC4)nc(-c3ccc(C(F)(F)c4cccc(F)c4)cc3)c12 [Compound 142]	100 to 1000	
Nc1nccn2c(C34CCC(CO)(CC3)OC4)nc(-c3ccc(C(F)(F)c4cccc(C5CC5)c4)cc3)c12 [Compound 143]	20 to 100	
C=CC(=O)N1CCC[C@@H](n2nc(-c3ccc(Oc4ccccc4)cc3)c3c(N)ncnc32)C1 [Ibrutinib, reference compound]		AUC(0-inf) [2]: 362 ng·h/mL; Cmax [2]: 222 ng/mL

The next lines start with results.

IC50 [1] [nM]	SMILES	further results
20 to 100	COc1cccc(Oc2ccc(-c3nc(C4CCC(CO)OC4)n4ccncc34)cc2)c1F (stereo not drawn) [Compound 90]	
< 5	Cc1cccc(Oc2ccc(-c3nc(C45CCC(CO)(CC4)OC5)n4ccnc(N)c34)cc2)c1F [Compound 92]	
20 to 100	COc1ccc(C#N)c(Oc2ccc(-c3nc(C4CCC(CO)OC4)n4ccnc(N)c34)cc2)c1 (stereo not drawn) [Compound 96]	
100 to 1000	Cc1cccnc1NC(=O)c1ccc(-c2nc(C3CCC(CO)OC3)n3ccnc(N)c23)cc1 (stereo not drawn) [Compound 97]	
> 1000	NC(=O)c1ccccc1C(=O)c1ccc(-c2nc(C3CCC(CO)OC3)n3ccnc(N)c23)cc1 (stereo not drawn) [Compound 99]	
20 to 100	Nc1nccn2c(C3CCC(CO)OC3)nc(-c3ccc(C(=O)c4ccc(Cl)cc4)cc3)c12 (stereo not drawn) [Compound 102]	
< 5	Nc1nccn2c(C3CCC(CO)OC3)nc(-c3ccc(C(=O)Nc4cc(C(F)(F)F)ccn4)cc3F)c12 (stereo not drawn) [Compound 105]	
100 to 1000	CNC(=O)c1cc(Oc2ccc(-c3nc(C4CCC(CO)OC4)n4ccnc(N)c34)cc2)ccn1 (stereo not drawn) [Compound 107]	
5 to 20	Nc1ncnc2c1c(-c1ccc(C(=O)Nc3ccccn3)cc1)nn2C1CCC(CO)OC1 (stereo not drawn) [Compound 108]	
5 to 20	COc1cccc(Oc2ccc(-c3nc(C45CCC(CO)(CC4)OC5)n4ccnc(N)c34)cc2)c1C(F)(F)F [Compound 112]	
5 to 20	Nc1nccn2c(C34CCC(CO)(CC3)OC4)nc(-c3ccc(C(F)(F)c4ccccc4)cc3F)c12 [Compound 114]	
< 5	COc1cccc(Oc2ccc(-c3nc(C45CCC(CO)(CC4)OC5)n4ccnc(N)c34)c(F)c2)c1C#N [Compound 115]	
< 5	Nc1nccn2c(C34CCC(CO)(CC3)OC4)nc(-c3ccc(C(=O)Nc4cc(C(F)(F)F)ccn4)cc3F)c12 [Compound 117]	
< 5	COc1cccc(Oc2ccc(-c3nc(C45CCC(CO)(CC4)OC5)n4c(Cl)cnc(N)c34)cc2)c1C#N [Compound 122]	
20 to 100	COc1cccc(C(F)(F)c2ccc(-c3nc(C4CCC(CO)OC4)n4ccnc(N)c34)cc2)c1C#N (stereo not drawn) [Compound 123]	
5 to 20	Nc1nccn2c(C3CCC(CO)OC3)nc(-c3ccc(C(F)(F)c4cccc(F)c4F)cc3)c12 (stereo not drawn) [Compound 127]	
5 to 20	COc1cccc(C(F)(F)c2ccc(-c3nc(C45CCC(CO)(CC4)OC5)n4ccnc(N)c34)cc2)c1F [Compound 129]	
5 to 20	Nc1nccn2c(C34CCC(CO)(CC3)OC4)nc(-c3ccc(C(F)(F)c4cccc(F)c4F)cc3)c12 [Compound 130]	
> 1000	CC(C)(c1ccccc1)c1ccc(-c2nc(C3CCC(CO)OC3)n3ccnc(N)c23)cc1 (stereo not drawn) [Compound 131]	
100 to 1000	Nc1nccn2c(C3CCC(CO)OC3)nc(-c3ccc(C(=O)Nc4ccccc4F)cc3)c12 (stereo not drawn) [Compound 133]	
5 to 20	COc1cccc(Oc2ccc(-c3nc(C4CCC(CO)OC4)n4c(C)cnc(N)c34)cc2)c1F (stereo not drawn) [Compound 134]	
5 to 20	N#Cc1ccnc(NC(=O)c2ccc(-c3nc(C45COC(CO)(C4)C5)n4ccnc(N)c34)cc2)c1 [Compound 135]	
5 to 20	Nc1nccn2c(C34COC(CO)(C3)C4)nc(-c3ccc(C(=O)Nc4cc(C(F)(F)F)ccn4)cc3)c12 [Compound 136]	
5 to 20	COc1cccc(Oc2ccc(-c3nc(C45COC(CO)(C4)C5)n4ccnc(N)c34)cc2)c1C#N [Compound 137]	
20 to 100	Nc1nccn2c(C34COC(CO)(C3)C4)nc(-c3ccc(C(F)(F)c4ccccc4)cc3)c12 [Compound 138]	
100 to 1000	Nc1nccn2c(C34CCC(CO)(CC3)OC4)nc(-c3ccc(C(F)(F)c4ccc(F)c(Cl)c4)cc3)c12 [Compound 140]	
100 to 1000	Nc1nccn2c(C34CCC(CO)(CC3)OC4)nc(-c3ccc(C(F)(F)c4ccc(F)cc4)cc3)c12 [Compound 141]	
